From patent publication EP4752149A1, “OXYGEN-CONTAINING FUSED TRICYCLIC DERIVATIVE, AND PREPARATION METHOD THEREFOR AND USE THEREOF” (Tuojie Biotech (Shanghai) Co., Ltd., priority 2023, dated 2025)

Assays:
Format in all cases: cell-based
[1] = system: Triple-negative breast cancer cells (HCC1806); experiment: Inhibitory activity against triple-negative breast cancer cells (HCC1806), CTG cell viability; details: 7 days with compound
Experimental: Triple-negative breast cancer cells (HCC1806, Nanjing Cobioer Biosciences Co., Ltd.) were cultured using an RPMI 1640 culture medium containing 10% FBS in a cell incubator (37 °C, 5% CO2). On day one, the cells were plated in a 384-well plate at a cell concentration of 200 cells/well and cultured overnight in an incubator. On day two, the cells were treated with compounds. The highest compound concentration was 10 µM and was diluted 3-fold to obtain 9 concentrations, and the final concentration of DMSO was 0.2%. After the cells were cultured in the incubator for another 7 days, the cell viability was tested using a CTG Cell Viability Detection Reagent (MCE); the testing method was consistent with the method provided by the kit. Data were processed using XLfit, and IC50 was calculated. [formula] X: the logarithm of the compound concentration; Y: inhibition%. Table 4. The IC50 (nM) of compounds of the present disclosure against HCC1806

[2] = system: Human non-small cell lung cancer cells (A549); experiment: Inhibitory activity against human non-small cell lung cancer cells (A549), CTG cell viability; details: 5 days with compound
Experimental: (§1) Human non-small cell lung cancer cells (A549) were cultured using an F12K culture medium containing 10% FBS in a cell incubator (37 °C, 5% CO2). On day one, the cells were plated in a 384-well plate at a cell concentration of 300 cells/well and cultured overnight in an incubator. On day two, the cells were treated with compounds. The highest compound concentration was 10 µM and was diluted 3-fold to obtain 9 concentrations, and the final concentration of DMSO was 0.2%. After the cells were cultured in the incubator for another 5 days, the cell viability was tested using a CTG Cell Viability Detection Reagent; the testing method was consistent with the method provided by the kit. Data were processed using XLFit, and IC50 was calculated. [formula] X: the logarithm of the compound concentration; Y: % inhibition. Table 10. The IC50 (nM) of a compound of the present disclosure against A549

MCF-7/Palbo-R = experiment: Inhibitory activity against CDK4/6 inhibitor-resistant human breast cancer cells (MCF-7 palbociclib-resistant cell line), cell viability; details: 5 days with compound, CellTiter-Glo cell viability
Experimental: MCF-7/Palbo-R cell source: MCF7 cells (Nanjing Cobioer Biosciences Co., Ltd.) were treated with 1 µM palbociclib for a long time, and drug resistance was induced.
The palbociclib-resistant breast cancer cell line MCF-7/Palbo-R was cultured using a DMEM culture medium containing 10% FBS in a cell incubator (37 °C, 5% CO2). On day one, the cells were plated in a 384-well plate at a cell concentration of 800 cells/well and cultured overnight in an incubator. On day two, the cells were treated with compounds. The highest compound concentration was 10 µM and was diluted 3-fold to obtain 9 concentrations, and the final concentration of DMSO was 0.2%. After the cells were cultured in the incubator for another 5 days, the cell viability was tested using a CellTiter-Glo luminescent cell viability assay kit; the testing method was consistent with the method provided by the kit. Data were processed using XLfit, and IC50 was calculated.
The inhibition rates (IR) of the test compounds were calculated using the following formula: IR (%) = (1 - (RLU compound - RLU blank control) / (RLU vehicle control-RLU blank control)) × 100%. Table 16. The IC50 (nM) of a compound of the present disclosure against MCF-7/Palbo-R

[3] = system: Human breast cancer cells (MDA-MB-231); experiment: Inhibitory activity against human breast cancer cells (MDA-MB-231), CTG cell viability; details: 7 days with compound
Experimental: (§2) Human breast cancer cells (MDA-MB-231) were cultured using a DMEM culture medium containing 10% FBS in a cell incubator (37 °C, 5% CO2). On day one, the cells were plated in a 384-well plate at a cell concentration of 600 cells/well and cultured overnight in an incubator. On day two, the cells were treated with compounds. The highest compound concentration was 10 µM and was diluted 3-fold to obtain 9 concentrations, and the final concentration of DMSO was 0.2%. After the cells were cultured in the incubator for another 7 days, the cell viability was tested using a CTG Cell Viability Detection Reagent; the testing method was consistent with the method provided by the kit. Data were processed using XLFit, and IC50 was calculated. [formula] X: the logarithm of the compound concentration; Y: % inhibition. Table 8. The IC50 (nM) of a compound of the present disclosure against MDA-MB-231

[4] = system: Human prostate cancer cells (22RV1); experiment: Inhibitory activity against human prostate cancer cells (22RV1), CTG cell viability; details: 5 days with compound
Experimental: as §1, with “prostate” for “non-small cell lung”, “(22RV1)” for “(A549)”, “RPMI 1640” for “F12K”, “500” for “300”, “12.” for “10.”, “22RV1” for “A549”

[5] = system: Human breast cancer cells (SUM-149PT); experiment: Inhibitory activity against human breast cancer cells (SUM-149PT), CTG cell viability; details: 5 days with compound
Experimental: as §2, with “cells (SUM-149PT)” for “cells (MDA-MB-231)”, “of 800” for “of 600”, “another 5” for “another 7”, “Table 14.” for “Table 8.”, “against SUM-149PT” for “against MDA-MB-231”

| SMILES | IC50 [1] [nM] | IC50 [2] [nM] | IC50 (MCF-7/Palbo-R) [nM] | IC50 [3] [nM] | IC50 [4] [nM] | IC50 [5] [nM] | IC50 (MCF-7/Palbo-R; Homo sapiens, MCF7, 120 h) [nM] |
| --- | --- | --- | --- | --- | --- | --- | --- |
| CC(C)n1c(C(C)(C)O)nc2c(F)cc(-c3nc(N[C@@H]4CCOC[C@H]4O)ncc3Cl)cc21 [PF-07220060] | 1590 | 1870 | 967 | 567 | – | – | – |
| COCc1cc(C(=O)Nc2cc([C@H]3CC[C@@H](OC(=O)NC(C)C)C3)[nH]n2)n(C)n1 [PF-07104091, reference compound] | 936 | 1130 | 836 | 1250 | 2700 | 1340 | – |
| CC(=O)c1c(C)c2cnc(Nc3ccc(N4CCNCC4)cn3)nc2n(C2CCCC2)c1=O [Palbociclib] | – | – | – | – | – | – | > 2000 |
